One experiment deals with hQC (Homo sapiens, UniProt Q16769). Briefly: Fluorometric assay of glutaminyl cyclase (QC) inhibition, H-Gln-βNA or H-Gln-AMC substrate. The experiment is classed as biochemical. To be noted: compound from preparative synthesis, purified by chromatography; fluorescent assay; read-out: IC50 hQC. As for the experimental part:
All compounds were immediately tested regarding their activity as hQC inhibitors.
The purity of the compounds was determined by HPLC-MS. The IC50 value against hQC was measured using the fluorescent assay.
All measurements were performed with a BioAssay Reader HTS-7000Plus for microplates (Perkin Elmer) at 30° C. QC activity was evaluated fluorometrically using H-Gln-βNA. The samples consisted of 0.2 mM fluorogenic substrate, 0.25 U pyroglutamyl aminopeptidase (Unizyme, Hørsholm, Denmark) in 0.2 M Tris/HCl, pH 8.0 containing 20 mM EDTA and an appropriately diluted aliquot of QC in a final volume of 250 μl. Excitation/emission wavelengths were 320/410 nm. The assay reactions were initiated by addition of glutaminyl cyclase. QC activity was determined from a standard curve of β-naphthylamine under assay conditions. One unit is defined as the amount of QC catalyzing the formation of 1 μmol pGlu-βNA from H-Gln-βNA per minute under the described conditions.
In a second fluorometric assay, QC was activity was determined using H-Gln-AMC as substrate. Reactions were carried out at 30° C. utilizing the NOVOStar reader for microplates (BMG labtechnologies). The samples consisted of varying concentrations of the fluorogenic substrate, 0.1 U pyroglutamyl aminopeptidase (Qiagen) in 0.05 M Tris/HCl, pH 8.0 containing 5 mM EDTA and an appropriately diluted aliquot of QC in a final volume of 250 μl. Excitation/emission wavelengths were 380/460 nm. The assay reactions were initiated by addition of glutaminyl cyclase. QC activity was determined from a standard curve of 7-amino-4-methylcoumarin under assay conditions. The kinetic data were evaluated using GraFit software.
For inhibitor testing, the sample composition was the same as described above, except of the putative inhibitory compound added. For a rapid test of QC-inhibition, samples contained 4 mM of the respective inhibitor and a substrate concentration at 1 KM. For detailed investigations of the inhibition and determination of Ki-values, influence of the inhibitor on the auxiliary enzymes was investigated first. In every case, there was no influence on either enzyme detected, thus enabling the reliable determination of the QC inhibition. The inhibitory constant was evaluated by fitting the set of progress curves to the general equation for competitive inhibition using GraFit software.
hQC, sequence (Q16769 29-361): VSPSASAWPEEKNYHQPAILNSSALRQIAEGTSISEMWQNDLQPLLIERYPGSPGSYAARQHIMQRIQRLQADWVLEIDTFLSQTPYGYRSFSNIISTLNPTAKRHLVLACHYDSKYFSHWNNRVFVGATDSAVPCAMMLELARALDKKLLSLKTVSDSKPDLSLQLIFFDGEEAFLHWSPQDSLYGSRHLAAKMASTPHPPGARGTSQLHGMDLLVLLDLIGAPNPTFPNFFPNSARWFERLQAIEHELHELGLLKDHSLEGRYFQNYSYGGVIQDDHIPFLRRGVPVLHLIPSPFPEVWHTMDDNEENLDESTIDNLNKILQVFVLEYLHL
Take `O=C1N/C(=N\CCc2cccs2)C(c2ccccc2Cl)N1CCCn1ccnc1` (stereo not shown) [Compound 43, 5-(2-Chloro-phenyl)-1-(3-imidazol-1-yl-propyl)-4-(2-thiophen-2-yl-ethylimino)-imidazolidin-2-one]: the half-inhibitory concentration (IC50) worked out at 0.858 µM.

Consider `O=C1N/C(=N\CCc2c[nH]c3ccccc23)C(c2cccc(F)c2F)N1CCCn1ccnc1` (stereo not shown) [Compound 52, 5-(2,3-Difluoro-phenyl)-1-(3-imidazol-1-yl-propyl)-4-(2-(1H-indol-3-yl)-ethylimino)-imidazolidin-2-one], for which the IC50 amounted to 0.626 µM.

As to `O=C1N/C(=N/CCc2c[nH]c3ccccc23)C(c2ccccc2Cl)N1CCCn1ccnc1` (stereo not shown) [Compound 55, 5-(2-Chloro-phenyl)-1-(3-imidazol-1-yl-propyl)-4-2-(1H-indol-3-yl)-ethylimino-imidazolidin-2-one], the IC50 was found to be 0.482 µM.

With `O=C1N/C(=N/CCc2c[nH]c3ccccc23)C(c2ccccc2F)N1CCCn1ccnc1` (stereo not shown) [Compound 61, 5-(2-Fluoro-phenyl)-1-(3-imidazol-1-yl-propyl)-4-(2-(1H-indol-3-yl)-ethylimino)-imidazolidin-2-one], the half-maximal inhibitory concentration (IC50) stood at 0.452 µM.

The same experiment, now with this note: read-out: IC50.
As to `O=C1N/C(=N\c2ccc3c(c2)OCCO3)C(c2cc(F)cc(F)c2)N1CCCn1ccnc1` (stereo not shown) [Compound 32, 5-(3,5-Difluoro-phenyl)-4-2,3-dihydro-benzo1,4dioxin-6-ylimino-1-(3-imidazol-1-yl-propyl)-imidazolidin-2-one], the IC50 was found to be 6.7 µM.

Consider `O=C1N/C(=N\c2ccc3c(c2)OCCO3)C(c2ccc(Cl)c(F)c2)N1CCCn1ccnc1` (stereo not shown) [Compound 33, 5-(4-Chloro-3-fluoro-phenyl)-4-2,3-dihydro-benzo1,4dioxin-6-ylimino-1-(3-imidazol-1-yl-propyl)-imidazolidin-2-one], for which the IC50 was 4.9 µM.

On to `O=C1N/C(=N\c2ccc3c(c2)OCCO3)C(c2ccccc2Cl)N1CCCn1ccnc1` (stereo not shown) [Compound 34, 5-(2-Chloro-phenyl)-4-2,3-dihydro-benzo1,4dioxin-6-ylimino-1-(3-imidazol-1-yl-propyl)-imidazolidin-2-one], for which the IC50 worked out at 4 µM.

For `CCCCC1/C(=N\c2ccc3c(c2)OCCO3)NC(=O)N1CCCn1ccnc1` (stereo not shown) [Compound 35, 5-Butyl-4-2,3-dihydro-benzo1,4dioxin-6-ylimino-1-(3-imidazol-1-yl-propyl)-imidazolidin-2-one], the concentration for half-maximal inhibition (IC50) stood at 5.8 µM.

As to `CCCC/N=C1\NC(=O)N(CCCn2ccnc2)C1c1cccc(F)c1F` (stereo not shown) [Compound 36, 4-Butylimino-5-(2,3-difluoro-phenyl)-1-(3-imidazol-1-ylpropyl)-imidazolidin-2-one], the IC50 turned out to be 6.7 µM.

Turning to `CCCC/N=C1/NC(=O)N(CCCn2ccnc2)C1c1cc(F)cc(F)c1` (stereo not shown) [Compound 37, 4-Butylimino-5-(3,5-difluoro-phenyl)-1-(3-imidazol-1-ylpropyl)-imidazolidin-2-one], the IC50 is 5.8 µM.

On to `O=C1N/C(=N/CCc2cccs2)C(c2ccccc2)N1CCCn1ccnc1` (stereo not shown) [Compound 38, 1-(3-Imidazol-1-yl-propyl)-5-phenyl-4-2-thiophen-2-yl-ethylimino-imidazolidin-2-one], for which the IC50 is 7.6 µM.

With `O=C1N/C(=N/CCc2cccs2)C(C2CCC=CO2)N1CCCn1ccnc1` (stereo not shown) [Compound 39, 5-(3,4-Dihydro-2H-pyran-2-yl)-1-(3-imidazol-1-yl-propyl)-4-2-thiophen-2-yl-ethylimino-imidazolidin-2-one], the IC50 is 7.6 µM.

As for `O=C1N/C(=N\CCc2cccs2)C(c2cccc(F)c2F)N1CCCn1ccnc1` (stereo not shown) [Compound 40, 5-(2,3-Difluoro-phenyl)-1-(3-imidazol-1-yl-propyl)-4-2-thiophen-2-yl-ethylimino-imidazolidin-2-one], the IC50 came out at 4.9 µM.

`O=C1N/C(=N/CCc2cccs2)C(c2cc(F)cc(F)c2)N1CCCn1ccnc1` (stereo not shown) [Compound 41, 5-(3,5-Difluoro-phenyl)-1-(3-imidazol-1-yl-propyl)-4-2-thiophen-2-yl-ethylimino-imidazolidin-2-one]: the IC50 is 3.1 µM.

For the compound `O=C1N/C(=N/CCc2cccs2)C(c2ccc(Cl)c(F)c2)N1CCCn1ccnc1` (stereo not shown) [Compound 42, 5-(4-Chloro-3-fluoro-phenyl)-1-(3-imidazol-1-yl-propyl)-4-2-thiophen-2-yl-ethylimino-imidazolidin-2-one], the IC50 came out at 5.8 µM.

As for `O=C1N/C(=N\CCc2cccs2)C(c2ccccc2Cl)N1CCCn1ccnc1` (stereo not shown) [Compound 43, 5-(2-Chloro-phenyl)-1-(3-imidazol-1-yl-propyl)-4-(2-thiophen-2-yl-ethylimino)-imidazolidin-2-one], the IC50 came out at 0.04 µM.

Regarding `O=C1N/C(=N\CCc2cccs2)C(c2ccccc2F)N1CCCn1ccnc1` (stereo not shown) [Compound 44, 5-(2-Fluoro-phenyl)-1-(3-imidazol-1-yl-propyl)-4-(2-thiophen-2-yl-ethylimino)-imidazolidin-2-one], the IC50 amounted to 5.8 µM.

`O=C1N/C(=N/CCc2cccs2)C(c2ccc(O)cc2)N1CCCn1ccnc1` (stereo not shown) [Compound 45, 5-(4-Hydroxy-phenyl)-1-(3-imidazol-1-yl-propyl)-4-2-thiophen-2-yl-ethylimino-imidazolidin-2-one]: the IC50 worked out at 4.9 µM.

Regarding `Cc1cccc(C2C(=NCCc3c[nH]c4ccccc34)NC(=O)N2CCCn2ccnc2)c1O` (stereo not shown) [Compound 46, 5-(2-Hydroxy-3-methyl-phenyl)-1-(3-imidazol-1-yl-propyl)-4-2-(1H-indol-3-yl)-ethylimino-imidazolidin-2-one], the IC50 turned out to be 2.2 µM.

`O=C1N/C(=N/CCc2c[nH]c3ccccc23)C(c2ccsc2)N1CCCn1ccnc1` (stereo not shown) [Compound 47, 1-(3-Imidazol-1-yl-propyl)-4-2-(1H-indol-3-yl)-ethylimino-5-thiophen-3-yl-imidazolidin-2-one]: the IC50 is 4 µM.

As to `CC1/C(=N\CCc2c[nH]c3ccccc23)NC(=O)N1CCCn1ccnc1` (stereo not shown) [Compound 48, 1-(3-Imidazol-1-yl-propyl)-4-2-(1H-indol-3-yl)-ethylimino-5-methyl-imidazolidin-2-one], the IC50 worked out at 7.6 µM.

Take `O=C1N/C(=N/CCc2c[nH]c3ccccc23)C(c2ccccc2)N1CCCn1ccnc1` (stereo not shown) [Compound 49, 1-(3-Imidazol-1-yl-propyl)-4-2-(1H-indol-3-yl)-ethylimino-5-phenyl-imidazolidin-2-one]: the IC50 stood at 4.9 µM.

With `O=C1N/C(=N/CCc2c[nH]c3ccccc23)C(c2ccc[nH]2)N1CCCn1ccnc1` (stereo not shown) [Compound 50, 1-(3-Imidazol-1-yl-propyl)-4-2-(1H-indol-3-yl)-ethylimino-5-(1H-pyrrol-2-yl)-imidazolidin-2-one], the IC50 worked out at 6.7 µM.

On to `O=C1N/C(=N/CCc2c[nH]c3ccccc23)C(C2CCC=CO2)N1CCCn1ccnc1` (stereo not shown) [Compound 51, 5-(3,4-Dihydro-2H-pyran-2-yl)-1-(3-imidazol-1-yl-propyl)-4-2-(1H-indol-3-yl)-ethylimino-imidazolidin-2-one], for which the IC50 turned out to be 5.8 µM.

As to `O=C1N/C(=N\CCc2c[nH]c3ccccc23)C(c2cccc(F)c2F)N1CCCn1ccnc1` (stereo not shown) [Compound 52, 5-(2,3-Difluoro-phenyl)-1-(3-imidazol-1-yl-propyl)-4-(2-(1H-indol-3-yl)-ethylimino)-imidazolidin-2-one], the 50% inhibitory concentration (IC50) came out at 2.2 µM.

As for `O=C1N/C(=N/CCc2c[nH]c3ccccc23)C(c2cc(F)cc(F)c2)N1CCCn1ccnc1` (stereo not shown) [Compound 53, 5-(3,5-Difluoro-phenyl)-1-(3-imidazol-1-yl-propyl)-4-2-(1H-indol-3-yl)-ethylimino-imidazolidin-2-one], the IC50 worked out at 4 µM.

For `O=C1N/C(=N/CCc2c[nH]c3ccccc23)C(c2ccc(Cl)c(F)c2)N1CCCn1ccnc1` (stereo not shown) [Compound 54, 5-(4-Chloro-3-fluoro-phenyl)-1-(3-imidazol-1-yl-propyl)-4-2-(1H-indol-3-yl)-ethylimino-imidazolidin-2-one], the IC50 was determined as 3.1 µM.

In the case of `O=C1N/C(=N/CCc2c[nH]c3ccccc23)C(c2ccccc2Cl)N1CCCn1ccnc1` (stereo not shown) [Compound 55, 5-(2-Chloro-phenyl)-1-(3-imidazol-1-yl-propyl)-4-2-(1H-indol-3-yl)-ethylimino-imidazolidin-2-one], the IC50 came to 2.2 µM.

As for `O=C1N/C(=N/CCc2c[nH]c3ccccc23)C(CO)N1CCCn1ccnc1` (stereo not shown) [Compound 56, 5-Hydroxymethyl-1-(3-imidazol-1-yl-propyl)-4-2-(1H-indol-3-yl)-ethylimino-imidazolidin-2-one], the IC50 came out at 8.5 µM.

As for `O=C1N/C(=N/CCc2c[nH]c3ccccc23)C(C2CC2)N1CCCn1ccnc1` (stereo not shown) [Compound 57, 5-Cyclopropyl-1-(3-imidazol-1-yl-propyl)-4-2-(1H-indol-3-yl)-ethylimino-imidazolidin-2-one], the IC50 is 5.8 µM.

Regarding `O=C1N/C(=N/CCc2c[nH]c3ccccc23)C(c2ccco2)N1CCCn1ccnc1` (stereo not shown) [Compound 58, 5-Furan-2-yl-1-(3-imidazol-1-yl-propyl)-4-2-(1H-indol-3-yl)-ethylimino-imidazolidin-2-one], the IC50 stood at 6.7 µM.

In the case of `CCCCC1/C(=N\CCc2c[nH]c3ccccc23)NC(=O)N1CCCn1ccnc1` (stereo not shown) [Compound 59, 5-Butyl-1-(3-imidazol-1-yl-propyl)-4-2-(1H-indol-3-yl)-ethylimino-imidazolidin-2-one], the IC50 turned out to be 4.9 µM.

For the compound `CCC1/C(=N\CCc2c[nH]c3ccccc23)NC(=O)N1CCCn1ccnc1` (stereo not shown) [Compound 60, 5-Ethyl-1-(3-imidazol-1-yl-propyl)-4-2-(1H-indol-3-yl)-ethylimino-imidazolidin-2-one], the IC50 came to 5.8 µM.

As for `O=C1N/C(=N/CCc2c[nH]c3ccccc23)C(c2ccccc2F)N1CCCn1ccnc1` (stereo not shown) [Compound 61, 5-(2-Fluoro-phenyl)-1-(3-imidazol-1-yl-propyl)-4-(2-(1H-indol-3-yl)-ethylimino)-imidazolidin-2-one], the IC50 is 2.2 µM.

As usually defined, the IC50 is the concentration at which inhibition is half-maximal.
